Where two headings read alike, the source gives them in different places.
Assays:
[1] = tested on: HL-60(TB)
[2] = tested on: CCRF-CEM; assay: panel of 60 human tumor cell lines, growth inhibition (Leukemia)
[3] = tested on: M14; assay: panel of 60 human tumor cell lines, growth inhibition (Melanoma); details: M14
[4] = tested on: MDA-MB-435; assay: as above; details: MDA-MB-435
[5] = tested on: SF-539; assay: panel of 60 human tumor cell lines, growth inhibition (CNS Cancer); details: SF-539
[6] = tested on: COLO 205; assay: panel of 60 human tumor cell lines, growth inhibition (Colon Cancer); details: COLO 205
[7] = tested on: HCT-15; assay: as above; details: HCT-15
[8] = tested on: HT29; assay: as above; details: HT29
[9] = tested on: KM12; assay: as above; details: KM12
[10] = tested on: ACHN; assay: panel of 60 human tumor cell lines, growth inhibition (Renal Cancer)
[11] = tested on: SN12C; assay: as above
[12] = tested on: MDA-MB-231/ATCC; assay: panel of 60 human tumor cell lines, growth inhibition (Breast Cancer); details: MDA-MB-231/ATCC
[13] = tested on: PC-3; assay: panel of 60 human tumor cell lines, growth inhibition (Prostate Cancer); details: PC-3
[14] = tested on: HOP-92; assay: panel of 60 human tumor cell lines, growth inhibition (Non-Small Cell Lung Cancer); details: HOP-92
[15] = tested on: NCI-H226; assay: as above; details: NCI-H226
[16] = tested on: NCI-H23; assay: as above; details: NCI-H23
[17] = tested on: NCI-H460; assay: as above; details: NCI-H460
[18] = tested on: NCI-H522; assay: as above; details: NCI-H522

## C=C1C(=O)O[C@H]2[C@H]1CC/C(COC(=O)N1CCC(F)(F)CC1)=C\CC[C@@]1(C)O[C@@H]21 [JVM 2-66]
[1]
  GI50: 2040 nM
  TGI: 7.15E−6
[1]; Log10 Concentration −4.0
  Percent Growth: −49%
[1]; Log10 Concentration −5.0
  Percent Growth: −13%
[1]; Log10 Concentration −6.0
  Percent Growth: 79%
[1]; Log10 Concentration −7.0
  Percent Growth: 84%
[1]; Log10 Concentration −8.0
  Percent Growth: 97%
[1]; read-out: LC50
  CC50: > 100000 nM
[2]
  GI50: 682 nM
  TGI: 3.41E−6
[2]; Log10 Concentration −4.0
  Percent Growth: −53%
[2]; Log10 Concentration −5.0
  Percent Growth: −36%
[2]; Log10 Concentration −6.0
  Percent Growth: 41%
[2]; Log10 Concentration −7.0
  Percent Growth: 97%
[2]; Log10 Concentration −8.0
  Percent Growth: 97%
[3]; Log10 Concentration −4.0
  Percent Growth: −85%
[3]; Log10 Concentration −5.0
  Percent Growth: 8%
[3]; Log10 Concentration −6.0
  Percent Growth: 85%
[3]; Log10 Concentration −7.0
  Percent Growth: 87%
[3]; Log10 Concentration −8.0
  Percent Growth: 96%
[4]
  GI50: 464 nM
  TGI: 1.89E−5
[4]; Log10 Concentration −4.0
  Percent Growth: −52%
[4]; Log10 Concentration −5.0
  Percent Growth: 20%
[4]; Log10 Concentration −6.0
  Percent Growth: 30%
[4]; Log10 Concentration −7.0
  Percent Growth: 91%
[4]; Log10 Concentration −8.0
  Percent Growth: 98%
[5]
  GI50: 1980 nM
  TGI: 459E−6
[5]; Log10 Concentration −4.0
  Percent Growth: −88%
[5]; Log10 Concentration −5.0
  Percent Growth: −46%
[5]; Log10 Concentration −6.0
  Percent Growth: 90%
[5]; Log10 Concentration −7.0
  Percent Growth: 85%
[5]; Log10 Concentration −8.0
  Percent Growth: 96%
[6]
  GI50: 2060 nM
  TGI: 4.17E−6
[6]; Log10 Concentration −4.0
  Percent Growth: −93%
[6]; Log10 Concentration −5.0
  Percent Growth: −62%
[6]; Log10 Concentration −6.0
  Percent Growth: 101%
[6]; Log10 Concentration −7.0
  Percent Growth: 96%
[6]; Log10 Concentration −8.0
  Percent Growth: 102%
[7]
  GI50: 1470 nM
  TGI: 3.84E−6
[7]; Log10 Concentration −4.0
  Percent Growth: −86%
[7]; Log10 Concentration −5.0
  Percent Growth: −50%
[7]; Log10 Concentration −6.0
  Percent Growth: 70%
[7]; Log10 Concentration −7.0
  Percent Growth: 94%
[7]; Log10 Concentration −8.0
  Percent Growth: 100%
[8]
  GI50: 3300 nM
  TGI: 1.05E−5
[8]; Log10 Concentration −4.0
  Percent Growth: −84%
[8]; Log10 Concentration −5.0
  Percent Growth: 2%
[8]; Log10 Concentration −6.0
  Percent Growth: 102%
[8]; Log10 Concentration −7.0
  Percent Growth: 101%
[8]; Log10 Concentration −8.0
  Percent Growth: 97%
[9]
  GI50: 8550 nM
  TGI: 2.26E−5
[9]; Log10 Concentration −4.0
  Percent Growth: −85%
[9]; Log10 Concentration −5.0
  Percent Growth: 46%
[9]; Log10 Concentration −6.0
  Percent Growth: 99%
[9]; Log10 Concentration −7.0
  Percent Growth: 97%
[9]; Log10 Concentration −8.0
  Percent Growth: 103%
[10]
  GI50: 1790 nM
  TGI: 5.68E−6
[10]; Log10 Concentration −4.0
  Percent Growth: −83%
[10]; Log10 Concentration −5.0
  Percent Growth: −25%
[10]; Log10 Concentration −6.0
  Percent Growth: 75%
[10]; Log10 Concentration −7.0
  Percent Growth: 93%
[10]; Log10 Concentration −8.0
  Percent Growth: 103%
[10]; read-out: LC50
  CC50: 27400 nM
[11]
  GI50: 2720 nM
  TGI: 1.06E−5
[11]; Log10 Concentration −4.0
  Percent Growth: −89%
[11]; Log10 Concentration −5.0
  Percent Growth: 3%
[11]; Log10 Concentration −6.0
  Percent Growth: 86%
[11]; Log10 Concentration −7.0
  Percent Growth: 94%
[11]; Log10 Concentration −8.0
  Percent Growth: 98%
[12]
  GI50: 2010 nM
  TGI: 6.59E−6
[12]; Log10 Concentration −4.0
  Percent Growth: −84%
[12]; Log10 Concentration −5.0
  Percent Growth: −18%
[12]; Log10 Concentration −6.0
  Percent Growth: 79%
[12]; Log10 Concentration −7.0
  Percent Growth: 92%
[12]; Log10 Concentration −8.0
  Percent Growth: 101%
[13]
  GI50: 10800 nM
  TGI: 2.41E−5
[13]; Log10 Concentration −4.0
  Percent Growth: −89%
[13]; Log10 Concentration −5.0
  Percent Growth: 55%
[13]; Log10 Concentration −6.0
  Percent Growth: 97%
[13]; Log10 Concentration −7.0
  Percent Growth: 99%
[13]; Log10 Concentration −8.0
  Percent Growth: 101%
[14]
  GI50: 1450 nM
  TGI: 3.89E−6
[14]; Log10 Concentration −4.0
  Percent Growth: −94%
[14]; Log10 Concentration −5.0
  Percent Growth: −48%
[14]; Log10 Concentration −6.0
  Percent Growth: 69%
[14]; Log10 Concentration −7.0
  Percent Growth: 92%
[14]; Log10 Concentration −8.0
  Percent Growth: 95%
[15]
  TGI: 4.35E−6
[15]; Log10 Concentration −4.0
  Percent Growth: −71%
[15]; Log10 Concentration −5.0
  Percent Growth: −49%
[15]; Log10 Concentration −6.0
  Percent Growth: 87%
[15]; Log10 Concentration −7.0
  Percent Growth: 90%
[15]; Log10 Concentration −8.0
  Percent Growth: 102%
[16]
  GI50: 2590 nM
  TGI: 8.51E−6
[16]; Log10 Concentration −4.0
  Percent Growth: −70%
[16]; Log10 Concentration −5.0
  Percent Growth: −7%
[16]; Log10 Concentration −6.0
  Percent Growth: 98%
[16]; Log10 Concentration −7.0
  Percent Growth: 96%
[16]; Log10 Concentration −8.0
  Percent Growth: 93%
[17]
  GI50: 13300 nM
  TGI: 3.10E−5
[17]; Log10 Concentration −4.0
  Percent Growth: −69%
[17]; Log10 Concentration −5.0
  Percent Growth: 67%
[17]; Log10 Concentration −6.0
  Percent Growth: 99%
[17]; Log10 Concentration −7.0
  Percent Growth: 101%
[17]; Log10 Concentration −8.0
  Percent Growth: 100%
[18]
  GI50: 1250 nM
  TGI: 2.75E−6
[18]; Log10 Concentration −4.0
  Percent Growth: −80%
[18]; Log10 Concentration −5.0
  Percent Growth: −81%
[18]; Log10 Concentration −6.0
  Percent Growth: 64%
[18]; Log10 Concentration −7.0
  Percent Growth: 92%
[18]; Log10 Concentration −8.0
  Percent Growth: 91%

Reference: US9469650B2, “Melampomagnolide B derivatives” (BOARD OF TRUSTEES OF THE UNIVERSITY OF ARKANSAS, priority 2013, dated 2016)
